Experimental data reported in the supplement of paper PMC8617591.

Legend:
[1] = tested on: Mycobacterium tuberculosis Erdman (autoluminescent); experiment: FIC90 (Loewe) at 90% inhibition (log2); higher = more antagonistic
Experimental: (§1)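 DiaMOND equipotent two-drug combination dose responses against autoluminescent M. tuberculosis Erdman in 8 in vitro models. Read-out is OD600, or luminescence for the intracellular and dormancy models, normalised to untreated wells. Hill-fit Einf, AUC25 and GRinf are potency metrics; FIC50 and FIC90 are Loewe-additivity fractional inhibitory concentrations, given as log2 (negative = synergy). Replicates are averaged.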

[2] = tested on: Mycobacterium tuberculosis Erdman (autoluminescent); experiment: AUC25, normalised area under dose response up to IC25 (fraction (0-1)); higher = more potent at low dose
Experimental: as §1

[3] = tested on: Mycobacterium tuberculosis Erdman (autoluminescent); experiment: FIC50 (Loewe) at 50% inhibition (log2); higher = more antagonistic
Experimental: as §1

[4] = tested on: Mycobacterium tuberculosis Erdman (autoluminescent); experiment: Einf, fitted maximum growth inhibition of combination (fraction); higher = stronger maximal inhibition
Experimental: as §1

[5] = tested on: Mycobacterium tuberculosis Erdman (autoluminescent); experiment: GRinf, maximum normalised growth rate inhibition (unitless (-1 to 1)); higher = less effect (negative = killing)
Experimental: as §1

NC(=O)c1cnccn1 [pyrazinamide] + CO[C@H]1/C=C/O[C@@]2(C)Oc3c(C)c(O)c4c(O)c(c(/C=N/N5CCN(C6CCCC6)CC5)c(O)c4c3C2=O)NC(=O)/C(C)=C\C=C\[C@H](C)[C@H](O)[C@@H](C)[C@@H](O)[C@@H](C)[C@H](OC(C)=O)[C@@H]1C [rifapentine]
Settings | AUC25, [2] | Einf, [4] | FIC50, [3] | FIC90, [1] | GRinf, [5]
in vitro model: acidic pH 5.7, time point: constant (~7 days, model-specific) | 0.0839 | 0.93 | -0.598 | – | -0.369
in vitro model: acidic pH 5.7, time point: terminal (~4-5 doublings, model-specific) | 0.0754 | 0.997 | -0.129 | -1.04 | -0.31
in vitro model: intracellular J774, time point: constant = terminal | – | 0.964 | – | -0.235 | -0.243

Settings | AUC25, [2] | Einf, [4] | FIC50, [3] | FIC90, [1] | GRinf, [5]
in vitro model: butyrate, time point: constant (~7 days, model-specific) | 0.109 | 0.875 | 0.371 | 1.25 | 0.119
in vitro model: butyrate, time point: terminal (~4-5 doublings, model-specific) | 0.0943 | 0.941 | 0.431 | 1 | 0.108
in vitro model: cholesterol 0.05 mM, time point: constant (~7 days, model-specific) | 0.127 | 0.63 | – | – | 0.0214
in vitro model: cholesterol 0.05 mM, time point: terminal (~4-5 doublings, model-specific) | 0.105 | 0.896 | 0.52 | – | -0.284
in vitro model: cholesterol-high 0.2 mM, time point: constant (~7 days, model-specific) | 0.0949 | 0.922 | 0.664 | – | -0.246
in vitro model: cholesterol-high 0.2 mM, time point: terminal (~4-5 doublings, model-specific) | 0.0793 | 1 | 1.19 | 0.905 | -0.711
in vitro model: dormancy (butyrate + nitrate, low O2), time point: constant (~7 days, model-specific) | 0.0917 | 0.902 | -0.609 | 1.09 | 0.258
in vitro model: dormancy (butyrate + nitrate, low O2), time point: terminal (~4-5 doublings, model-specific) | 0.0455 | 0.982 | -0.14 | -0.0574 | -0.142
in vitro model: standard 7H9 glycerol, time point: constant = terminal | 0.0487 | 0.866 | -0.0174 | – | 0.219
in vitro model: valerate, time point: constant (~7 days, model-specific) | 0.0445 | 0.684 | 0.675 | – | 0.299
in vitro model: valerate, time point: terminal (~4-5 doublings, model-specific) | 0.0349 | 0.892 | 0.752 | 0.534 | 0.155

NC(=O)c1cnccn1 [pyrazinamide] + CO[C@H]1/C=C/O[C@@]2(C)Oc3c(C)c(O)c4c(O)c(c(/C=N/N5CCN(C)CC5)c(O)c4c3C2=O)NC(=O)/C(C)=C\C=C\[C@H](C)[C@H](O)[C@@H](C)[C@@H](O)[C@@H](C)[C@H](OC(C)=O)[C@@H]1C [rifampicin]
Settings | AUC25, [2] | Einf, [4] | FIC50, [3] | FIC90, [1] | GRinf, [5]
in vitro model: acidic pH 5.7, time point: constant (~7 days, model-specific) | 0.0773 | 0.932 | -0.484 | – | -0.451
in vitro model: acidic pH 5.7, time point: terminal (~4-5 doublings, model-specific) | 0.0598 | 0.992 | -0.21 | -1.3 | -0.278
in vitro model: intracellular J774, time point: constant = terminal | – | 0.989 | – | -0.135 | -0.472

Settings | AUC25, [2] | Einf, [4] | FIC50, [3] | FIC90, [1] | GRinf, [5]
in vitro model: butyrate, time point: constant (~7 days, model-specific) | 0.121 | 0.839 | 0.347 | – | 0.188
in vitro model: butyrate, time point: terminal (~4-5 doublings, model-specific) | 0.118 | 0.915 | 0.398 | 2.41 | 0.216
in vitro model: cholesterol 0.05 mM, time point: constant (~7 days, model-specific) | 0.128 | 0.607 | – | – | 0.0467
in vitro model: cholesterol 0.05 mM, time point: terminal (~4-5 doublings, model-specific) | 0.101 | 0.887 | 0.59 | – | -0.0969
in vitro model: cholesterol-high 0.2 mM, time point: constant (~7 days, model-specific) | 0.0909 | 0.91 | 1.2 | – | -0.177
in vitro model: cholesterol-high 0.2 mM, time point: terminal (~4-5 doublings, model-specific) | 0.095 | 1 | 1.54 | 1.5 | -0.819
in vitro model: dormancy (butyrate + nitrate, low O2), time point: constant (~7 days, model-specific) | 0.105 | 0.9 | -0.268 | 0.25 | 0.249
in vitro model: dormancy (butyrate + nitrate, low O2), time point: terminal (~4-5 doublings, model-specific) | 0.0706 | 0.983 | -0.19 | 0.408 | -0.179
in vitro model: standard 7H9 glycerol, time point: constant = terminal | 0.0562 | 0.896 | -0.199 | – | 0.144
in vitro model: valerate, time point: constant (~7 days, model-specific) | 0.054 | 0.761 | 0.449 | – | 0.201
in vitro model: valerate, time point: terminal (~4-5 doublings, model-specific) | 0.0277 | 0.903 | 0.477 | 0.361 | 0.149

CO[C@H]1/C=C/O[C@@]2(C)Oc3c(C)c(O)c4c(O)c(c(/C=N/N5CCN(C6CCCC6)CC5)c(O)c4c3C2=O)NC(=O)/C(C)=C\C=C\[C@H](C)[C@H](O)[C@@H](C)[C@@H](O)[C@@H](C)[C@H](OC(C)=O)[C@@H]1C [rifapentine] + CO[C@H]1/C=C/O[C@@]2(C)Oc3c(C)c(O)c4c(O)c(c(/C=N/N5CCN(C)CC5)c(O)c4c3C2=O)NC(=O)/C(C)=C\C=C\[C@H](C)[C@H](O)[C@@H](C)[C@@H](O)[C@@H](C)[C@H](OC(C)=O)[C@@H]1C [rifampicin]
Settings | AUC25, [2] | Einf, [4] | FIC50, [3] | FIC90, [1] | GRinf, [5]
in vitro model: acidic pH 5.7, time point: constant (~7 days, model-specific) | 0.0835 | 0.837 | 0.179 | – | -0.028
in vitro model: acidic pH 5.7, time point: terminal (~4-5 doublings, model-specific) | 0.0696 | 0.967 | 0.0519 | -0.186 | -0.182
in vitro model: intracellular J774, time point: constant = terminal | – | 0.934 | – | -0.3 | -0.195

Settings | AUC25, [2] | Einf, [4] | FIC50, [3] | FIC90, [1] | GRinf, [5]
in vitro model: butyrate, time point: constant (~7 days, model-specific) | 0.101 | 0.887 | 0.0385 | – | 0.0983
in vitro model: butyrate, time point: terminal (~4-5 doublings, model-specific) | 0.0929 | 0.958 | -0.077 | 0.00202 | 0.0599
in vitro model: cholesterol 0.05 mM, time point: constant (~7 days, model-specific) | 0.125 | 0.57 | -0.0632 | – | 0.181
in vitro model: cholesterol 0.05 mM, time point: terminal (~4-5 doublings, model-specific) | 0.085 | 0.883 | -0.246 | 0.16 | -0.0494
in vitro model: cholesterol-high 0.2 mM, time point: constant (~7 days, model-specific) | 0.0915 | 0.921 | -0.073 | 0.413 | -0.231
in vitro model: cholesterol-high 0.2 mM, time point: terminal (~4-5 doublings, model-specific) | 0.0669 | 0.999 | 0.0935 | -0.0799 | -0.64
in vitro model: dormancy (butyrate + nitrate, low O2), time point: constant (~7 days, model-specific) | 0.062 | 0.902 | 0.0837 | -0.356 | 0.162
in vitro model: dormancy (butyrate + nitrate, low O2), time point: terminal (~4-5 doublings, model-specific) | 0.0354 | 0.979 | 0.0345 | -0.0772 | -0.0822
in vitro model: standard 7H9 glycerol, time point: constant = terminal | 0.0721 | 0.907 | 0.198 | 0.54 | 0.101
in vitro model: valerate, time point: constant (~7 days, model-specific) | 0.0488 | 0.815 | 0.231 | – | 0.136
in vitro model: valerate, time point: terminal (~4-5 doublings, model-specific) | 0.0288 | 0.921 | -0.0221 | -0.019 | 0.0885
